Experimental data reported in US8435544B2, “Ophthalmic compositions comprising calcineurin inhibitors or mTOR inhibitors” (Lux Biosciences, Inc., priority 2007, dated 2013).

Legend:
[1] = Ocular distribution and pharmacokinetics of 14C-voclosporin in NZW rabbits; format: in vivo, New Zealand White (NZW) rabbits; conditions: for AUC / Cmax: bilateral ocular; for Cmax: Blood
Procedure: (§1) NZW rabbits (30 females/8 males) were used in a single dose (SD) and 7-day repeat dose (RD) study (see Table 38). DB rabbits (16 females) were used in a single dose study (see Table 39). […] Blood and ocular tissue radioactivity levels were assessed at designated time points via combustion followed by liquid scintillation counting.
(§2) At each sampling point, a t-test was used to compare the tissue concentrations within or between the two strains of rabbits. SigmaStat® 3.5 (Systat, Inc., San Jose, Calif.) was used for the statistical analyses (p<0.05). […] Pharmacokinetic analysis was performed using WinNonlin 5.2 (Pharsight, Corporation, Mountain View, Calif.). Cmax and Tmax, and where calculable AUC and t1/2, were reported.

[2] = Ocular distribution and pharmacokinetics of 14C-voclosporin in DB rabbits; format: in vivo, Dutch Belted (DB) rabbits
Procedure: as §1, §2

[3] = system: canine keratoconjunctivitis sicca (KCS); assay: Topical voclosporin clinical study in dogs with KCS; format: in vivo
Excerpt: The study covered assessment of tear production (as measured by the Schirmer Tear Test (STT)), the response of clinical observation of the cornea, and participating ophthalmologists' overall assessment of efficacy.
Dogs diagnosed with chronic (>3 months in duration) immune-mediated KCS were selected from the clinic populations of the North Carolina State Veterinary Teaching Hospital. Diagnosis of immune-mediated KCS was made by exclusion of other causes of KCS.
Physical and ophthalmic examinations were performed at 0, 7, 14, and 28 days.

[4] = topical mixed micellar composition

C=CC=CCC(C)C(O)C1C(=O)NC(CC)C(=O)N(C)CC(=O)N(C)C(CC(C)C)C(=O)NC(C(C)C)C(=O)N(C)C(CC(C)C)C(=O)NC(C)C(=O)NC(C)C(=O)N(C)C(CC(C)C)C(=O)N(C)C(CC(C)C)C(=O)N(C)C(C(C)C)C(=O)N1C (stereo not drawn) [^14C-voclosporin]
mortality, morbidity, clinical irritation ([1]; 35 μL of 0.2% 14C-voclosporin mixed micellar formulation, single or daily for 7 days, NZW and DB rabbits): No mortality, morbidity or evidence of clinical irritation | AUC ([1]; Aqueous Humor, repeat dose (RD, QD for 7 days), female NZW rabbits): 96 hr * ng eq./g | AUC ([1]; Aqueous Humor, single dose (SD), female NZW rabbits): 45 hr * ng eq./g | Cmax ([1]; repeat dose (RD, QD for 7 days), female NZW rabbits): BQL (Below Quantifiable Limit (<0.1 ng/mL)) | Cmax ([1]; single dose (SD), female NZW rabbits): BQL (Below Quantifiable Limit (<0.1 ng/mL)) | AUC ([1]; Choroid/Retina, repeat dose (RD, QD for 7 days), female NZW rabbits): 897 hr * ng eq./g | AUC ([1]; Choroid/Retina, single dose (SD), female NZW rabbits): 472 hr * ng eq./g | AUC ([1]; Cornea, repeat dose (RD, QD for 7 days), female NZW rabbits): 54624 hr * ng eq./g | AUC ([1]; Cornea, single dose (SD), female NZW rabbits): 23166 hr * ng eq./g | AUC ([1]; Iris/Ciliary Body, repeat dose (RD, QD for 7 days), female NZW rabbits): 1952 hr * ng eq./g | AUC ([1]; Iris/Ciliary Body, single dose (SD), female NZW rabbits): 382 hr * ng eq./g | AUC ([1]; Lacrimal Gland, repeat dose (RD, QD for 7 days), female NZW rabbits): 1109 hr * ng eq./g | AUC ([1]; Lacrimal Gland, single dose (SD), female NZW rabbits): 416 hr * ng eq./g | AUC ([1]; Lens, repeat dose (RD, QD for 7 days), female NZW rabbits): 356 hr * ng eq./g | AUC ([1]; Lens, single dose (SD), female NZW rabbits): 47 hr * ng eq./g | AUC ([1]; Lower Bulbar Conjunctiva, repeat dose (RD, QD for 7 days), female NZW rabbits): 16585 hr * ng eq./g | AUC ([1]; Lower Bulbar Conjunctiva, single dose (SD), female NZW rabbits): 12029 hr * ng eq./g | AUC ([1]; Lower Eyelid, repeat dose (RD, QD for 7 days), female NZW rabbits): 358791 hr * ng eq./g | AUC ([1]; Lower Eyelid, single dose (SD), female NZW rabbits): 207630 hr * ng eq./g | AUC ([1]; Nictitating Membrane, repeat dose (RD, QD for 7 days), female NZW rabbits): 15964 hr * ng eq./g | AUC ([1]; Nictitating Membrane, single dose (SD), female NZW rabbits): 12135 hr * ng eq./g | AUC ([1]; Optic Nerve, repeat dose (RD, QD for 7 days), female NZW rabbits): 1805 hr * ng eq./g | AUC ([1]; Optic Nerve, single dose (SD), female NZW rabbits): 569 hr * ng eq./g | AUC ([1]; Sclera, repeat dose (RD, QD for 7 days), female NZW rabbits): 3825 hr * ng eq./g | AUC ([1]; Sclera, single dose (SD), female NZW rabbits): 2646 hr * ng eq./g | AUC ([1]; Submandibular Lymph Node, repeat dose (RD, QD for 7 days), female NZW rabbits): 1190 hr * ng eq./g | AUC ([1]; Submandibular Lymph Node, single dose (SD), female NZW rabbits): 893 hr * ng eq./g | AUC ([1]; Tear, repeat dose (RD, QD for 7 days), female NZW rabbits): 230878 hr * ng eq./g | AUC ([1]; Tear, single dose (SD), female NZW rabbits): 168259 hr * ng eq./g | AUC ([1]; Upper Bulbar Conjunctiva, repeat dose (RD, QD for 7 days), female NZW rabbits): 19944 hr * ng eq./g | AUC ([1]; Upper Bulbar Conjunctiva, single dose (SD), female NZW rabbits): 14782 hr * ng eq./g | AUC ([1]; Upper Eyelid, repeat dose (RD, QD for 7 days), female NZW rabbits): 98656 hr * ng eq./g | AUC ([1]; Upper Eyelid, single dose (SD), female NZW rabbits): 114651 hr * ng eq./g | AUC ([1]; Vitreous Humor, repeat dose (RD, QD for 7 days), female NZW rabbits): 23 hr * ng eq./g | AUC ([1]; Vitreous Humor, single dose (SD), female NZW rabbits): 27 hr * ng eq./g | concentrations in remaining ocular tissues ([1]; after a single dose): 20-223 ng eq/g tissue | lowest concentrations of radioactivity in ocular tissues ([1]; after a single dose, aqueous and vitreous humor, and the lens): 1-11 ng eq/g tissue | highest concentrations of radioactivity in ocular tissues ([1]; after a single dose, eyelids, conjunctiva, cornea, nictitating membrane and tears): > 1 mg eq/g tissue | Blood levels ([1]; after ocular application): at the lower limit of quantification (LLOQ) | concentrations of radioactivity in all ocular tissues except lens, aqueous humor, vitreous humor ([1]; after single and repeat ocular applications): ≥ 10 ng eq/g tissue | blood radioactivity ([1]; all but one blood sample below LLOQ): < 3.06 ng eq/mL | concentrations in target tissues (conjunctiva, cornea, lacrimal gland) at 24 hours ([1]; once daily ocular applications for 7 days): remained at therapeutic levels even at the 24-hour mark | change in t1/2 on repeat dosing ([1]; repeat dosing up to 7 days, lower bulbar conjunctiva, nictitating membrane, upper bulbar conjunctiva): no apparent change | levels in all ocular tissues except aqueous/vitreous humor and lens ([1]; single dose administration): higher than 10 ng equivalent drug/gram tissue | distribution to the contralateral, non-treated eye ([1]; unilateral dosing): minimal distribution | AUC ([2]; Aqueous Humor, single dose, bilateral ocular, female DB rabbits): 56 hr * ng eq./g | Cmax ([2]; Blood, single dose, bilateral ocular, female DB rabbits): BQL (Below Quantifiable Limit (<0.1 ng/mL)) | AUC ([2]; Choroid/Retina, single dose, bilateral ocular, female DB rabbits): 92 hr * ng eq./g | AUC ([2]; Cornea, single dose, bilateral ocular, female DB rabbits): 27844 hr * ng eq./g | AUC ([2]; Iris/Ciliary Body, single dose, bilateral ocular, female DB rabbits): 541 hr * ng eq./g | AUC ([2]; Lacrimal Gland, single dose, bilateral ocular, female DB rabbits): 335 hr * ng eq./g | AUC ([2]; Lens, single dose, bilateral ocular, female DB rabbits): 26 hr * ng eq./g | AUC ([2]; Lower Bulbar Conjunctiva, single dose, bilateral ocular, female DB rabbits): 13107 hr * ng eq./g | AUC ([2]; Lower Eyelid, single dose, bilateral ocular, female DB rabbits): 512473 hr * ng eq./g | AUC ([2]; Nictitating Membrane, single dose, bilateral ocular, female DB rabbits): 13091 hr * ng eq./g | AUC ([2]; Optic Nerve, single dose, bilateral ocular, female DB rabbits): 1127 hr * ng eq./g | AUC ([2]; Sclera, single dose, bilateral ocular, female DB rabbits): 3502 hr * ng eq./g | AUC ([2]; Submandibular Lymph Node, single dose, bilateral ocular, female DB rabbits): 635 hr * ng eq./g | AUC ([2]; Tear, single dose, bilateral ocular, female DB rabbits): 262299 hr * ng eq./g | AUC ([2]; Upper Bulbar Conjunctiva, single dose, bilateral ocular, female DB rabbits): 14296 hr * ng eq./g | AUC ([2]; Upper Eyelid, single dose, bilateral ocular, female DB rabbits): 68063 hr * ng eq./g | AUC ([2]; Vitreous Humor, single dose, bilateral ocular, female DB rabbits): 16 hr * ng eq./g | ocular tissue concentrations (e.g., Cmax) versus NZW rabbits (melanin binding) ([2]; single dose to DB rabbits): not significantly different from NZW rabbits

C=C/C=C/C[C@@H](C)[C@@H](O)[C@H]1C(=O)N[C@@H](CC)C(=O)N(C)CC(=O)N(C)[C@@H](CC(C)C)C(=O)N[C@@H](C(C)C)C(=O)N(C)[C@@H](CC(C)C)C(=O)N[C@@H](C)C(=O)N[C@H](C)C(=O)N(C)[C@@H](CC(C)C)C(=O)N(C)[C@@H](CC(C)C)C(=O)N(C)[C@@H](C(C)C)C(=O)N1C [voclosporin, reference compound]
tissue accumulation ([1]; after multiple dosing): minimal tissue accumulation | tissue levels at 24 hours ([1]; single (1 day) topical dose, female NZW rabbits): Therapeutic levels of voclosporin were noticed even at the 24-hour mark | level in the choriod/retina [1, 4]: high levels | level in the vitreous humor [1, 4]: low levels | adverse effects ([3]; 30 days treatment period, 0.2 wt % voclosporin topically every 12 hours): No adverse effects were noted | maintenance of STT ([3]; dogs with KCS, 30 days): maintained the STT in these dogs for 30 days
